Reference: the METLIN SMRT retention time set (Domingo-Almenara et al. 2019)

Test: gradient 5% acetonitrile 3 min, to 50% in 2 min, to 85% in 15 min, held 3 min, 100 µL/min
Conditions: column: Zorbax Extend-C18 2.1 x 50 mm; eluents: water / acetonitrile, 0.1% formic acid
Outline: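 Data were gathered over 3 months by HPLC coupled to a quadrupole time-of-flight mass spectrometer, operated in positive and negative ionization mode. Mixtures of ~100 pure standards ran on a Zorbax Extend-C18 column (2.1 × 50 mm, 1.8 μm) at 100 μL/min, with water and acetonitrile each containing 0.1% formic acid and dead and dwell volumes of 40 μL and 900 μL. Retention time was read from adduct peaks picked by computer and checked manually.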

| RP-LC retention time | Compound |
| --- | --- |
| 731 s | Cc1ccc2c(=O)c(C(=O)N3CCCCC3)cn(CC(=O)NC3CCCCC3)c2n1 |
| 699 s | Cc1nnc(NC(=O)CSc2nnc(C3COc4ccccc4O3)o2)s1 (centres undefined) |
| 866 s | COc1ccc(S(=O)(=O)CCc2nc(-c3cccc(-c4ccnn4C)c3)no2)cc1 |
| 670 s | Cc1cccc(-n2ccnc2SCC(=O)Nc2nccs2)c1C |
| 727 s | COC(=O)c1cn(CC(=O)Nc2cc(F)ccc2F)c2nc(C)ccc2c1=O |
| 864 s | COc1ccc(NS(=O)(=O)c2ccc(-c3nnc(C4CCC4)o3)o2)cc1 |
| 631 s | Cc1cc(C)n(CC(=O)N2CCCCCC2c2nnc(C)o2)n1 (centres undefined) |
| 719 s | CC(C)n1c(=O)c(Nc2cc(F)cc(F)c2)nc2ccncc21 |
| 830 s | COc1ccccc1C(=O)N1CCCC(COc2ccc(C(=O)NC(C)C)cc2)C1 (centres undefined) |
| 608 s | Fc1ccc(CN2CCc3nc(N4CCOCC4)ncc3C2)cc1 |
| 824 s | CNC(=O)C1CCN(c2nc3ccc(-c4ccc(F)cc4)nc3s2)CC1 |
| 678 s | NC[C@@](O)(c1ccc(Cl)cc1)c1ccc(-c2cn[nH]c2)cc1 |
| 777 s | CCC(C)C(=O)N1CCCN(C2=NS(=O)(=O)C(c3ccccc3)=C2C)CC1 (centres undefined) |
| 837 s | COCc1nnc([C@@H]2CC(F)(F)CN2Cc2ccc(OC)cc2)o1 |
| 957 s | O=C(Nc1ccc(F)cc1F)c1c(O)c2cccnc2n(-c2ccc(F)cc2)c1=O |
| 935 s | O=C(Cn1cccc(-c2nc(-c3ccc(Br)cc3)no2)c1=O)Nc1ccc2c(c1)OCO2 |
| 1070 s | Cc1csc(-c2cc(S(=O)(=O)Nc3ccc(F)c(Cl)c3)c(C)s2)n1 |
| 612 s | CCn1c(CN2CCN(S(C)(=O)=O)CC2)nc2cc(NC(=O)C(C)C)ccc21 |
| 699 s | COc1ccc2c(c1)c(CN1CCC(C(=O)NCc3ccccc3Cl)CC1)cn2C |
| 843 s | CC(C)(C)C1CCc2[nH]nc(C(=O)NC3CC3)c2C1 (centres undefined) |
| 1210 s | COc1cccc(-n2c(=O)c(C(=O)Nc3ccc(F)cc3)c(O)c3cccnc32)c1 |
| 776 s | CCc1ccccc1NC(=O)CSc1nnc2ccc(C(=O)Nc3cccc(F)c3)cn12 |

| RP-LC retention time | Compound |
| --- | --- |
| 634 s | CCOc1ccc(CC(=O)N2CCN(c3cc(CC)n4cnnc4n3)CC2)cc1 |
| 696 s | COCCNC(=O)CN1C(=O)C2CCCCN2c2ccc(C(=O)N3CCCCC3)cc21 (centres undefined) |
| 924 s | CN(CCc1noc(-c2ccc(F)cc2)n1)C(=O)Nc1cc(F)ccc1F |
| 880 s | O=C(Cc1ccc(F)cc1)NCCOc1cccc(C(F)(F)F)c1 |
| 699 s | Cn1c(C(=O)N2CCN(c3ccccn3)CC2)cc2cc(S(=O)(=O)N3CCCCC3)ccc21 |
| 701 s | Cc1ccc(NS(=O)(=O)c2cc(-c3[nH]ncc3C(=O)N3CCOCC3)oc2C)c(F)c1 |
| 911 s | CSc1cccc(NC(=O)Cn2cccc(-c3nc(-c4ccccc4)no3)c2=O)c1 |
| 605 s | Cc1nc2ccn(Cc3cccnc3)c(=O)c2cc1C(=O)NCCC(C)C |
| 715 s | Cc1ccn(-c2ccc(C(=O)NC(C)C)cn2)n1 |
| 892 s | COc1ccccc1Cc1noc(C2CN(C(=O)c3ccc(Cl)s3)C2)n1 |
| 1320 s | Cc1ccc(-c2noc(C3CCCN3S(=O)(=O)c3ccc(Cl)cc3C)n2)cc1 (centres undefined) |
| 795 s | O=C(NCCc1noc(C2CC2)n1)c1ccc(Cl)s1 |
| 601 s | OC1(c2ccccn2)CCOC2(CCN(Cc3ccccc3OC(F)(F)F)CC2)C1 (centres undefined) |
| 695 s | Cc1cc(C)cc(NC(=O)N2CC(CN(C)C)C3(CCCCC3)C2)c1 (centres undefined) |
| 684 s | Cc1ccc2nc(-c3ccccc3O)c(Nc3ccc4c(c3)OCCO4)n2c1 |
| 572 s | CCNc1cc(N2CCC(CCC(=O)Nc3ccc4c(c3)OCCO4)CC2)ncn1 |
| 732 s | Cc1ccc(CC(=O)NC2CCN(c3cc(-c4cccs4)[nH]n3)C2)cc1 (centres undefined) |
| 674 s | CC1C(=O)NCCN1C(=O)CCSc1ccc(Cl)cc1 (centres undefined) |
| 783 s | Cc1cc(C)c(CNC(=O)c2cn3ccccc3n2)c(C)c1 |
| 983 s | CCC(C)c1ccc(NC(=O)C2CCN(C(=O)C(C)(C)C)CC2)cc1 (centres undefined) |
| 1290 s | Cc1oc(-c2ccc(OC(C)C)cc2)nc1CN(c1ccccc1)S(=O)(=O)c1cccs1 |
| 635 s | COc1ccc(C2(C(=O)N[C@@H]3CN(S(C)(=O)=O)C[C@H]3CN(C)C)CC2)cc1 |

| RP-LC retention time | Compound |
| --- | --- |
| 1020 s | CCc1noc(-c2ccnc(-n3ncc(C(=O)N4CCC(C)CC4)c3C)c2)n1 |
| 681 s | CCc1nnc([C@@H]2CC(F)(F)CN2C(=O)Cc2c(C)noc2C)o1 |
| 789 s | Cc1cccc(NC(=O)Cn2c(=O)c3cc(C4CC4)nn3c3ncccc32)c1 |
| 563 s | O=C(NCc1cccs1)C1CCN(CCc2c[nH]c3ncccc23)CC1 |
| 598 s | CCCN1CCN(CCCNC(=O)C2CCCN(S(=O)(=O)c3ccc4c(ccn4C)c3)C2)CC1 (centres undefined) |
| 1120 s | CC(C)c1ccc(NC(=O)C2CCCN(c3ccc(=O)n(-c4cccc(Cl)c4)n3)C2)cc1 (centres undefined) |
| 788 s | C=CCNC(=O)c1cn(-c2ccc(-c3nc(C4CC4)no3)cn2)cn1 |
| 630 s | Cc1cc(C)c(C)c(S(=O)(=O)Nc2ccc(C(=O)NCc3ccccn3)cc2)c1C |
| 672 s | Cc1cc(C)n(Cc2ccc(C(=O)N3CCN(Cc4noc5ccccc45)CC3)o2)n1 |
| 717 s | COc1ccc(NS(=O)(=O)c2cc3n(c2)CCN(C(C)C)C3=O)cc1 |
| 965 s | Cc1nc2cc(-c3noc(-c4ccc(C#N)cc4)n3)ccc2n(C)c1=O |
| 804 s | COc1ccc(C2C(C(=O)NCCC(C)C)c3cc(OC)c(OC)cc3C(=O)N2C)cc1 (centres undefined) |
| 730 s | CCc1c(C(=O)O)nnn1-c1cc(OC)cc(OC)c1 |
| 936 s | Cc1cccc(CNC(=O)C2=C3CCCN3c3ccc(F)cc3S2(=O)=O)c1 |
| 697 s | Cc1oc2cc3oc(=O)c(CC(=O)N4CCC(C(N)=O)CC4)c(C)c3cc2c1C |
| 1090 s | COc1ccc(-c2ncc3c(n2)CCN(S(=O)(=O)c2ccccc2C(F)(F)F)C3)cc1 |
| 892 s | Cc1ccc(NC(=O)C2CCCN2S(=O)(=O)c2cc3c(cc2C)NC(=O)C(C)O3)cc1Cl (centres undefined) |
| 646 s | CC(=O)Nc1ccc2c(c1)CN(C(=O)c1ccccc1F)C(C(=O)N1CCCC1)C2 (centres undefined) |
| 722 s | COCCNc1c(-c2ccccc2)nc2sc(C(=O)N3CCOCC3)c(C)n12 |
| 990 s | CC(C)CN(CC(=O)N(Cc1ccco1)CC1CCCO1)C(=O)c1ccc(F)cc1 (centres undefined) |
| 579 s | Cc1ncc2c(SCC(=O)NCc3ccc(F)cc3F)ncnc2n1 |
| 1010 s | O=C(NCc1ccc(C(F)(F)F)cc1)c1c(O)c2cccnc2[nH]c1=O |

| RP-LC retention time | Compound |
| --- | --- |
| 656 s | Cc1ccc(S(=O)(=O)N2CCCC(CCC(=O)NCc3ccccn3)C2)cc1 (centres undefined) |
| 780 s | CCCNC(=O)c1cn(-c2cc(-c3nc(CC)no3)ccn2)cn1 |
| 853 s | CC(C)n1cnc2ccc(-c3noc(COc4ccc(Cl)cc4)n3)cc21 |
| 777 s | CCn1cc(CN2CCC(C(=O)NC3CCCCCC3)CC2)c2cc(Cl)ccc21 |
| 581 s | CCC(=O)Nc1ccc2c(c1)nc(CN1CCCC1)n2C(C)C |
| 1100 s | CC(CCc1ccccc1)NC(=O)C1CCCN(c2nccnc2Oc2ccccc2)C1 (centres undefined) |
| 620 s | CC1CCCCN1CCNC(=O)Cn1c2ccccc2c2cnn(C)c(=O)c21 (centres undefined) |
| 693 s | O=C(Cn1c(C(F)(F)F)nc2cc3c(cc21)OCCO3)NCC1CCCO1 (centres undefined) |
| 1030 s | COc1cc(CN(CC2CCCO2)C(=O)c2oc3ccccc3c2C)cc(OC)c1OC (centres undefined) |
| 673 s | O=C(c1ccc(F)c(Cl)c1)N1CCN=C1N1CCCCC1 |
| 722 s | COc1ccc(-c2nnc(-c3ccc(C)c(S(=O)(=O)Nc4cccnc4)c3)o2)cc1OC |
| 592 s | CN(C)c1ccc2c(c1)CN(Cc1ccccc1C#N)CCO2 |
| 816 s | CCOC(=O)c1c(C)[nH]c(CCC(=O)NCc2ccc(C)o2)c1C |
| 776 s | CC1CCN(S(=O)(=O)c2ccc3nc(N4CCN(C5CCCCC5)CC4)ccc3c2)CC1 |
| 911 s | Cc1ccc(-c2cn3c(CC(=O)Nc4ccc(F)cc4Cl)csc3n2)cc1C |
| 719 s | O=C(NC1CCN(c2cc(-c3cccs3)[nH]n2)C1)c1cccc(Cl)c1 (centres undefined) |
| 1060 s | Cc1nn(-c2cccc(Cl)c2)c2nc(N3CCCC(C(=O)NC4CC4)C3)sc12 (centres undefined) |
| 627 s | Cc1cccc(NC(=O)N2CC(Cc3nncn3C(C)C)C2)c1C |
| 762 s | O=C(c1ccco1)N1CCN(C(=O)c2nnn3c2COC(c2ccccc2)C3)CC1 (centres undefined) |
| 733 s | O=S(=O)(c1cccc(F)c1)N1CC(F)(F)C[C@H]1CN1CCc2ccccc2C1 |
| 1310 s | CCOc1nc2ccccc2nc1N1CCCC(C(=O)Nc2cccc(Cl)c2C)C1 (centres undefined) |

| Compound | RP-LC retention time |
| --- | --- |
| COc1ccc(NC2=NCCO2)c2c1CCCC2 | 640 s |
| CCOC(=O)c1c(N)n(CCCOC)c2nc3ccccc3nc12 | 645 s |
